From ChEMBL document CHEMBL5113462, “Synthesis and evaluation of inhibitors of Mycobacterium tuberculosis UGM using bioisosteric replacement” (Bioorg Med Chem, 2022)
pKd: −log10 of the molar value.

Columns and labels:
[1] = target: UDP-galactopyranose mutase (Mycobacterium tuberculosis) (UniProt P9WIQ1); assay: Inhibition of Mycobacterium tuberculosis UGM expressed in Escherichia coli BL21(DE3) at 500 uM by Fluorescence polarization assay relative to control
[2] = target: UDP-galactopyranose mutase (Klebsiella pneumoniae) (UniProt Q48485); assay: Inhibition of Klebsiella pneumoniae UGM expressed in Escherichia coli BL21(DE3) at 500 uM by Fluorescence polarization assay relative to control
[3] = target: T1, UDP-galactopyranose mutase (Mycobacterium tuberculosis, UniProt P9WIQ1); assay: Inhibition of Mycobacterium tuberculosis UGM expressed in Escherichia coli BL21(DE3) assessed as dissociation constant by fluorescence polarization assay
[4] = target: UDP-galactopyranose mutase (Klebsiella pneumoniae, UniProt Q48485); assay: Inhibition of Klebsiella pneumoniae UGM expressed in Escherichia coli BL21(DE3) assessed as dissociation constant by fluorescence polarization assay
[5] = target: UDP-galactopyranose mutase (Mycobacterium tuberculosis) (UniProt P9WIQ1); assay: Inhibition of Mycobacterium tuberculosis UGM expressed in Escherichia coli BL21(DE3) assessed as formation of UDP-galactopyranose at 500 uM preincubated for 5 min followed by substrate addition and measured after 1 to 3 mins using UDP-galactofuranose as substrate by HPLC analysis relative to control; conditions: time 6-8 min
[6] = target: T1, UDP-galactopyranose mutase; assay: Inhibition of Mycobacterium tuberculosis UGM expressed in Escherichia coli BL21(DE3) assessed as dissociation constant by SPR analysis

Chain of UDP-galactopyranose mutase (Mycobacterium tuberculosis) (P9WIQ1 whole entry, looked up): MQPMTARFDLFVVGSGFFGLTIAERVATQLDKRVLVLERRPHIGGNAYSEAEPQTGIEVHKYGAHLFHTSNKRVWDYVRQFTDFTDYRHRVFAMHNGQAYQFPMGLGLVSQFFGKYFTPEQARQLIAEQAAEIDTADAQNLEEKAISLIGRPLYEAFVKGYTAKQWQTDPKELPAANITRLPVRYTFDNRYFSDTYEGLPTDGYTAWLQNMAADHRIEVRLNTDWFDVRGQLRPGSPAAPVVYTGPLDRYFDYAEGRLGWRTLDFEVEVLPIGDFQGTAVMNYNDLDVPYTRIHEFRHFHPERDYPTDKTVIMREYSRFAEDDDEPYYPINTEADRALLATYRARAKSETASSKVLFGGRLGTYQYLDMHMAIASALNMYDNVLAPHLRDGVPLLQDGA
T1 sequence (P9WIQ1 whole entry): as the sequence (P9WIQ1 whole entry, looked up) above
Chain of UDP-galactopyranose mutase (Klebsiella pneumoniae, UniProt Q48485) (Q48485 whole entry): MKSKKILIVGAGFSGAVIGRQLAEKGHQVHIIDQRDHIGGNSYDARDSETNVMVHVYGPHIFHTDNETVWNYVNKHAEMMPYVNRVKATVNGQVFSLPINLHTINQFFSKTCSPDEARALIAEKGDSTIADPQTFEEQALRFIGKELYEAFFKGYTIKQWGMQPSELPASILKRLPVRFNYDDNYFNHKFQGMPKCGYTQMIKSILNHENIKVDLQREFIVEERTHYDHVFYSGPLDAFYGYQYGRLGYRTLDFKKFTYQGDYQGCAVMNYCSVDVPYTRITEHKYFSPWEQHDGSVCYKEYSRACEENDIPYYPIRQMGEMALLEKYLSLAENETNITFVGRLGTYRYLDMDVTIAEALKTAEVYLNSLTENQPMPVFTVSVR
Chain of UDP-galactopyranose mutase (Klebsiella pneumoniae) (Q48485 whole entry): as above

| SMILES | inhibition [1] | inhibition [2] | pKd [3] | pKd [4] | inhibition [5] | pKd [6] |
| --- | --- | --- | --- | --- | --- | --- |
| O=C(/C=C/c1ccc(O)c(O)c1)N[C@@H](Cc1ccc(O)cc1)C(=O)O | 18% | – | – | – | – | – |
| O=C(/C=C/c1ccccc1)N[C@@H](Cc1ccc(Cl)cc1)C(=O)O | 49% | 41% | 3.45 | 4.37 | 63.3% | – |
| O=C(/C=C/c1ccccc1)N[C@@H](Cc1ccc(Br)cc1)C(=O)O | 82% | 59% | 4.20 | 4.24 | 87% | 3.98 |
| O=c1ccn([C@@H]2O[C@H](COP(=O)(O)OP(=O)(O)O)[C@@H](O)[C@H]2O)c(=O)[nH]1 [URIDINE_DIPHOSPHATE] | 86% | 63% | 4.46 | 4.27 | 47.6% | – |
| O=C(/C=C/c1ccc(O)c(O)c1)O[C@H](Cc1ccc(O)c(O)c1)C(=O)O [ROSMARINIC ACID] | 48% | 46% | 3.19 | 4.16 | – | – |
| O=C(/C=C/c1ccccc1)N[C@@H](Cc1ccc(F)cc1)C(=O)O | 46% | 58% | 3.02 | 3.81 | – | – |
| COc1cc(/C=C/C(=O)N[C@@H](Cc2ccc(O)c(O)c2)C(=O)O)ccc1O | 19% | – | – | – | – | – |
| O=C(/C=C/c1ccccc1)N[C@@H](Cc1ccc(I)cc1)C(=O)O | 77% | 60% | 3.71 | 4.77 | 54.6% | – |
| O=C(/C=C/c1ccccc1)N[C@@H](Cc1ccccc1)C(=O)O | 45% | 59% | < 3.00 | < 3.00 | – | – |
| O=C(/C=C/c1ccccc1)N[C@@H](Cc1ccc(O)cc1)C(=O)O | 29% | – | – | – | – | – |
| O=C(/C=C/c1ccccc1)N[C@@H](Cc1ccc([N+](=O)[O-])cc1)C(=O)O | 62% | 59% | 3.40 | 3.64 | 35.2% | – |
